Reference: ChEMBL document CHEMBL1134722, “Selective, orally active MMP inhibitors with an aryl backbone” (Bioorg Med Chem Lett, 2001)

Key:
[1] = molecular target: T1, Interstitial collagenase (Homo sapiens) (UniProt P03956); assay: Inhibitory activity against human Matrix metalloprotease-1
T1 sequence (whole entry): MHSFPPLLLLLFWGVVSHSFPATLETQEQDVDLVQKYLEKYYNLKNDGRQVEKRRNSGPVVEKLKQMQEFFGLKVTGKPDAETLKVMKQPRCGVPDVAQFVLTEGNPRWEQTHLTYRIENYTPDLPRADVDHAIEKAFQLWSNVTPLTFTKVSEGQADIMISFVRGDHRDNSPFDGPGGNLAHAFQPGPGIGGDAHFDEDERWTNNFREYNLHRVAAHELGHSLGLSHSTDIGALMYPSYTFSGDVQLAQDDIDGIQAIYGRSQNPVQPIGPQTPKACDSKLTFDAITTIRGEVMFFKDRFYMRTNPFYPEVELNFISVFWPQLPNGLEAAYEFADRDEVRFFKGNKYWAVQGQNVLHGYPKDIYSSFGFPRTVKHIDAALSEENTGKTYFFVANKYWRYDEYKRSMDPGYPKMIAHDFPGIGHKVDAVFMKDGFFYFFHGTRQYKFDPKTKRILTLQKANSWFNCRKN

[2] = Cmax after oral administration at 20 mpk in rats; format: ADME, organism-based; design: dose 20 mpk, route oral; conditions: rat, in vivo, 20 mg/kg
[3] = molecular target: 72 kDa type IV collagenase (Homo sapiens) (UniProt P08253); assay: Inhibitory concentration against Matrix metalloprotease-2
Sequence of 72 kDa type IV collagenase (Homo sapiens) (P08253 110-660 limits assumed): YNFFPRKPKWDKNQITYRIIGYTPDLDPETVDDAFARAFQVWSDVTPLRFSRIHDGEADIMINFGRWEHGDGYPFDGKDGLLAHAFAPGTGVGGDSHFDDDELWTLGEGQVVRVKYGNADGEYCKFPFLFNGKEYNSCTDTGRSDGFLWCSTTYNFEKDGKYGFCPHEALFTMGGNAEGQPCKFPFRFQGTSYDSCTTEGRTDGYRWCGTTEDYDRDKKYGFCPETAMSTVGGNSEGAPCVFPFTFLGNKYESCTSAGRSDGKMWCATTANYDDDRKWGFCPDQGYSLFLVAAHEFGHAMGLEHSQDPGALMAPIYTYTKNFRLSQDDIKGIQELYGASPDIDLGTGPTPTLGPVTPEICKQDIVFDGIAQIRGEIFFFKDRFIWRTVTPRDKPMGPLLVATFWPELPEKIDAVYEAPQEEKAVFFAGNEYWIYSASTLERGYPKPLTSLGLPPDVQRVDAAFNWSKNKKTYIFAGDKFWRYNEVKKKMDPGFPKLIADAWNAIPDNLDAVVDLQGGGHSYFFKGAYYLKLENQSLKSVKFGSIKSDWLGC

[4] = Oral bioavailability in rat; format: ADME, organism-based; conditions: in vivo, read-out: BA
[5] = Half life period after intravenous administration at 20 mpk in rats; format: ADME, organism-based; conditions: rat, in vivo, 20 mg/kg

O=C(NO)c1c(S(=O)(=O)N2CCC(Oc3ccc(C(F)(F)F)cc3)CC2)ccc2c1OCO2
Activity [1]: > 10 µM | Cmax [2]: 3060 ng/mL | Activity [3]: 3 nM

O=C(NO)c1c(F)cccc1S(=O)(=O)N1CCC(Oc2ccc(C(F)(F)F)cc2)CC1
Activity [1]: > 10 µM | Activity [3]: 3.3 nM

COCCOc1cccc(S(=O)(=O)N2CCC(Oc3ccc(C(F)(F)F)cc3)CC2)c1C(=O)NO
Activity [1]: > 10 µM | Cmax [2]: 2670 ng/mL | Activity [3]: 1 nM

COc1ccccc1OC1CCN(S(=O)(=O)c2ccc(OC)c(OC)c2C(=O)NO)CC1
Activity [1]: > 10 µM | Activity [3]: 330 nM

COc1ccc(S(=O)(=O)N2CCC(OCc3ccc4c(c3)OCO4)CC2)c(C(=O)NO)c1OC
Activity [1]: > 10 µM | Cmax [2]: 9200 ng/mL | Activity [3]: 1 nM

O=C(NO)c1c(S(=O)(=O)N2CCC(Oc3ccc(C(F)(F)F)cc3)CC2)ccc2c1OCCO2
Activity [1]: > 10 µM | Cmax [2]: 3200 ng/mL | Activity [3]: 1.4 nM

O=C(NO)C1(CS(=O)(=O)c2ccc(Oc3ccc(Cl)cc3)cc2)CCOCC1 [CTS-1027]
Activity [1]: 0.8 µM | Cmax [2]: 1370 ng/mL | bioavailability [4]: 22% | Activity [3]: 0.4 nM | half-life [5]: 1.5 h

COc1ccc(S(=O)(=O)N2CCC(Oc3ccc(C(F)(F)F)cc3)CC2)c(C(=O)NO)c1OC
Activity [1]: > 10 µM | Cmax [2]: 22500 ng/mL | bioavailability [4]: 32% | Activity [3]: 2.4 nM | half-life [5]: 1.9 h

CC1(C)SCCN(S(=O)(=O)c2ccc(Oc3ccncc3)cc2)[C@H]1C(=O)NO [PRINOMASTAT]
Cmax [2]: 2060 ng/mL | bioavailability [4]: 28% | half-life [5]: 1.6 h

O=C(NO)c1ccccc1S(=O)(=O)N1CCC(Oc2ccc(C(F)(F)F)cc2)CC1
Activity [1]: > 10 µM | Cmax [2]: 1230 ng/mL | bioavailability [4]: 23% | half-life [5]: 0.8 h

COc1ccc(OC)c(S(=O)(=O)N2CCC(Oc3ccc(C(F)(F)F)cc3)CC2)c1C(=O)NO
Activity [1]: > 10 µM | Activity [3]: 21 nM

CNC(=O)[C@@H](NC(=O)C(CC(C)C)C(O)C(=O)NO)C(C)(C)C (single isomer, unassigned)
Cmax [2]: 2400 ng/mL | bioavailability [4]: 9% | half-life [5]: 0.9 h

COc1ccc(S(=O)(=O)N2CCC(Oc3ccc(OC(F)(F)F)cc3)CC2)c(C(=O)NO)c1OC
Activity [1]: > 10 µM | Cmax [2]: 5160 ng/mL | bioavailability [4]: 31% | Activity [3]: 0.8 nM | half-life [5]: 1.5 h

COc1cccc(OC2CCN(S(=O)(=O)c3ccc(OC)c(OC)c3C(=O)NO)CC2)c1
Activity [1]: > 10 µM | Activity [3]: 12 nM

O=C(NO)c1c(OC2CCOCC2)cccc1S(=O)(=O)N1CCC(Oc2ccc(C(F)(F)F)cc2)CC1
Activity [1]: > 10 µM | Activity [3]: 1.1 nM

O=C(NO)c1c(Cl)cccc1S(=O)(=O)N1CCC(Oc2ccc(C(F)(F)F)cc2)CC1
Activity [1]: > 10 µM | Cmax [2]: 1310 ng/mL | Activity [3]: 1.9 nM

COc1ccc(S(=O)(=O)N2CCC(Oc3ccc(Cl)cc3)CC2)c(C(=O)NO)c1OC
Activity [1]: > 10 µM | Activity [3]: 0.3 nM

O=C(NO)c1c(S(=O)(=O)N2CCC(OCc3ccc4c(c3)OCO4)CC2)ccc2c1OCO2
Activity [1]: > 10 µM | Activity [3]: 1.1 nM

COc1ccc(OC2CCN(S(=O)(=O)c3ccc(OC)c(OC)c3C(=O)NO)CC2)cc1
Activity [1]: > 10 µM | Activity [3]: 1.8 nM

O=C(NO)c1ccccc1S(=O)(=O)N1CCC(Oc2ccc(OC(F)(F)F)cc2)CC1
Activity [1]: > 10 µM | Cmax [2]: 670 ng/mL | bioavailability [4]: 39% | Activity [3]: 2.2 nM

COc1ccc(S(=O)(=O)N2CCC(Oc3ccccc3)CC2)c(C(=O)NO)c1OC
Activity [1]: > 10 µM | Activity [3]: 1.1 nM
